Entries after “also recorded” stand apart in the source; their conditions may differ. Like-named read-outs stand apart in the source and are kept apart here.
Assays:
adult mongrel dogs [1] = assay: renal vasodilating activity in anesthetized dogs; type: in vivo, dog (adult mongrel); details: for change in vivo at 13.9 mg/kg / change in vivo at up to 13.9 mg/kg / change in vivo at 1.2 mg/kg: Canis lupus familiaris, renal vasodilator, relative to controls; for change in vivo at 13.9 mg/kg / change in vivo at up to 13.9 mg/kg: dose 13.9 mg/kg intravenous; for renal vasodilating activity (in words): summary of Table 4; for change in vivo at 1.2 mg/kg: dose 1.2 mg/kg intravenous
In short: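 In anesthetized mongrel dogs, compounds infused IV at rising (usually three-fold) rates, 5 min per dose, after a dopamine check (3 μg/kg/min, 10 min). Renal artery flow measured electromagnetically, pressure via carotid cannula; values are maximal % change from pre-drug control in RBF, RVR (MABP/flow), MABP and HR.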

[2] = biological target: T1, Phosphodiesterase fraction III (Canis lupus familiaris, UniProt A0A8I3NYE0); assay: inhibition of phosphodiesterase fraction III activity; type: biochemical, canine (heart); details: for IC50: cyclic AMP 0.10-1.0 uM, pH 7.4, canine heart enzyme; for phosphodiesterase fraction III inhibition (in words): summary of Table 5
T1 construct: isolated as an isozyme from the crude canine heart homogenate; from tissue; host or cells: canine heart (crude homogenate, ion exchange chromatography, third and last PDE peak)
T1 sequence (A0A8I3NYE0 1-1135): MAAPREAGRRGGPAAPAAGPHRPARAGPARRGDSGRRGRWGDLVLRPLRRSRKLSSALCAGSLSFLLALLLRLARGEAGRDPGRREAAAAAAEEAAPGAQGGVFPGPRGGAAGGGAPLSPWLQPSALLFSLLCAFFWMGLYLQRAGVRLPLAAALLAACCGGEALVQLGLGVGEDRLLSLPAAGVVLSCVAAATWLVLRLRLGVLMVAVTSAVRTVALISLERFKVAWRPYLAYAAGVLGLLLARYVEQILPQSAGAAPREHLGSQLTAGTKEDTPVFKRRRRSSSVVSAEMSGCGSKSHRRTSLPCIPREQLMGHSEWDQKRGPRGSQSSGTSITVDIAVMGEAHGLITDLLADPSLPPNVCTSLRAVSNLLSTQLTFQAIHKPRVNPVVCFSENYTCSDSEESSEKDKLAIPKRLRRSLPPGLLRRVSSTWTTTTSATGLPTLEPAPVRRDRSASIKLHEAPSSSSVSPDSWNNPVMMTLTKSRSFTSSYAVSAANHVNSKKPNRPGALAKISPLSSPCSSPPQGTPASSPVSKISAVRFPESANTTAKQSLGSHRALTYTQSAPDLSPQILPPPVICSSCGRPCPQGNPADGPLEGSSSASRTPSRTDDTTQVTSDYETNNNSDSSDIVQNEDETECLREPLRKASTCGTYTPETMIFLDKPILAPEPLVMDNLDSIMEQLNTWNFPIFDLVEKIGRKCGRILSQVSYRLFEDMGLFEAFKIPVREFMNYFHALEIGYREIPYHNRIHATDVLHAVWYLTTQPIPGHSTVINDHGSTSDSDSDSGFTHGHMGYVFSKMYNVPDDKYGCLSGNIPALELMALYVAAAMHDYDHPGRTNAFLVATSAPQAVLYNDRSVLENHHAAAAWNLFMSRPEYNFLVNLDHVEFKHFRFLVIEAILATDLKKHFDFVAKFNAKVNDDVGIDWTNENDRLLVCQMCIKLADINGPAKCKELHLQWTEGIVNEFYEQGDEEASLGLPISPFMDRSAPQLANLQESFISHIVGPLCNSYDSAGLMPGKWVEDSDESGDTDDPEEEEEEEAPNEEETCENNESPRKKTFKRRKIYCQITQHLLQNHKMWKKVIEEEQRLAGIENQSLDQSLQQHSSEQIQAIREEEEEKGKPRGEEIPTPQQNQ

adult mongrel dogs [3] = assay: acute in vivo cardiotonic activity in anesthetized dogs; set-up: species or system dog (adult mongrel); details: for change in vivo at 0.875 mg/kg / change in vivo at 0.025 mg/kg / change in vivo at 0.375 mg/kg: Canis lupus familiaris, cardiotonic, relative to controls; for change in vivo at 0.875 mg/kg: dose 0.875 mg/kg intravenous; for cardiotonic activity (in words): summary of Table 4; for change in vivo at 0.025 mg/kg: dose 0.025 mg/kg intravenous; for change in vivo at 0.375 mg/kg: dose 0.375 mg/kg intravenous
In short: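 Pentobarbital-anaesthetised, artificially respired mongrel dogs received compound by intravenous infusion or oral bolus. Recordings covered femoral arterial pressure, heart rate, LV dP/dt max (Millar catheter), aortic flow cardiac output, right-ventricular contractile force (strain gauge) and lead II ECG. Dopamine 10 μg/kg/min checked responsiveness; dose-related changes were expressed as % of pretreatment values and rated.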

[4] = read-out: MABP (mean arterial blood pressure)
[5] = read-out: RBF (renal blood flow)
[6] = read-out: RVR (renal vascular resistance)
[7] = read-out: dP/dt (maximum change left ventricular pressure with time)

SMILES | change in vivo at 13.9 mg/kg (adult mongrel dogs [1]; [5]) [%] | change in vivo at up to 13.9 mg/kg (adult mongrel dogs [1]; [6]) [%] | renal vasodilating activity (in words) (adult mongrel dogs [1]) | IC50 [2] [µM] | phosphodiesterase fraction III inhibition (in words) [2] | cardiotonic activity (in words) (adult mongrel dogs [3]) | also measured
COC(=O)CCc1c(O)nc(C)c2cc(OC)c(OC)cc12 [Compound B, 4-(β-Carbomethoxyethyl)-3-hydroxy-6,7-dimethoxy-1-methylisoquinoline] | 15 | -38 | renal vasodilating properties | 40 | inhibit phosphodiesterase fraction III activity; also recorded: phosphodiesterase fraction III inhibiting properties | cardiotonic properties | change in vivo at 13.9 mg/kg (adult mongrel dogs [1]; read-out: HR (heart rate)): 12%; change in vivo at 13.9 mg/kg (adult mongrel dogs [1]; [4]): -28%; change in vivo at 0.875 mg/kg (adult mongrel dogs [3]; read-out: CF (cardiac force)): 140%; change in vivo at 0.875 mg/kg (adult mongrel dogs [3]; read-out: HR (heart rate)): 34%; change in vivo at 0.875 mg/kg (adult mongrel dogs [3]; [4]): -12%; change in vivo at 0.875 mg/kg (adult mongrel dogs [3]; [7]): 78%
CCc1c(O)nc(C)c2cc(OC)c(OC)cc12 [Compound Z, 4-ethyl-3-hydroxy-6,7-dimethoxy-1-methylisoquinoline] |  |  | renal vasodilating properties | 2.4 | inhibit phosphodiesterase fraction III activity; also recorded: phosphodiesterase fraction III inhibiting properties | cardiotonic properties | change in vivo at 1.2 mg/kg (adult mongrel dogs [1]; [5]): 10%; change in vivo at 1.2 mg/kg (adult mongrel dogs [1]; [6]): -38%; change in vivo at 0.025 mg/kg (adult mongrel dogs [3]; read-out: CF (cardiac force)): 143%; change in vivo at 0.025 mg/kg (adult mongrel dogs [3]; read-out: HR (heart rate)): 13%; change in vivo at 0.025 mg/kg (adult mongrel dogs [3]; [4]): -12%; change in vivo at 0.025 mg/kg (adult mongrel dogs [3]; [7]): 98%
CCCc1c(O)nc(C)c2cc(OC)c(OC)cc12 [Y] | 10 | -13 | renal vasodilating properties | 5 | inhibit phosphodiesterase fraction III activity; also recorded: phosphodiesterase fraction III inhibiting properties | cardiotonic properties | change in vivo at 0.375 mg/kg (adult mongrel dogs [3]; read-out: CF (cardiac force)): 84%; change in vivo at 0.375 mg/kg (adult mongrel dogs [3]; read-out: HR (heart rate)): 12%; change in vivo at 0.375 mg/kg (adult mongrel dogs [3]; [4]): -16%; change in vivo at 0.375 mg/kg (adult mongrel dogs [3]; [7]): 44%

Reference: US4822800A (Ortho Pharmaceutical Corporation, priority 1986, dated 1989)
